Assay results taken from PubChem BioAssay (NCI).
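Compound exposure: 48 hours, 5 concentrations, 96-well plates. Here, GI50 denotes the concentration required for 50% inhibition of growth. TGI denotes the concentration required for complete inhibition of growth.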

What was measured:
Test in all cases: DTP human tumour cell line panel, 48 h
A498 renal = test system: A498 renal
786-0 renal = test system: 786-0 renal
UACC-62 melanoma = test system: UACC-62 melanoma
COLO 205 colon = test system: COLO 205 colon
NCI-H226 lung = test system: NCI-H226 lung
SF-539 CNS = test system: SF-539 CNS
OVCAR-8 ovarian = test system: OVCAR-8 ovarian
SK-MEL-28 melanoma = test system: SK-MEL-28 melanoma
OVCAR-5 ovarian = test system: OVCAR-5 ovarian
KM12 colon = test system: KM12 colon

## O=C(Nc1c(O)[nH]c(=S)[nH]c1=O)c1ccc2ccccc2n1
A498 renal
  TGI: > 100 µM
786-0 renal
  TGI: > 100 µM
UACC-62 melanoma
  TGI: > 100 µM
COLO 205 colon
  TGI: > 100 µM
NCI-H226 lung
  TGI: > 100 µM
SF-539 CNS
  TGI: > 100 µM
OVCAR-8 ovarian
  TGI: > 100 µM
SK-MEL-28 melanoma
  TGI: > 100 µM

## C1=Cc2nc1c(-c1ccncc1)c1ccc([n-]1)c(-c1ccncc1)c1nc(c(-c3ccncc3)c3ccc([n-]3)c2-c2ccncc2)C=C1.[Zn+2]
786-0 renal
  TGI: > 100 µM
OVCAR-5 ovarian
  TGI: > 100 µM
UACC-62 melanoma
  TGI: > 100 µM
COLO 205 colon
  TGI: > 100 µM
NCI-H226 lung
  TGI: > 100 µM
SF-539 CNS
  TGI: > 100 µM
OVCAR-8 ovarian
  TGI: > 100 µM
KM12 colon
  TGI: > 100 µM
SK-MEL-28 melanoma
  TGI: > 100 µM

## O=[N+]([O-])c1nccn1COCCF
786-0 renal
  TGI: > 100 µM
OVCAR-5 ovarian
  TGI: > 100 µM
UACC-62 melanoma
  TGI: > 100 µM
COLO 205 colon
  TGI: > 100 µM
NCI-H226 lung
  TGI: > 100 µM
SF-539 CNS
  TGI: > 100 µM
OVCAR-8 ovarian
  TGI: > 100 µM
KM12 colon
  TGI: > 100 µM
SK-MEL-28 melanoma
  TGI: > 100 µM

## CCN(CC)C(=O)COc1ccc(Br)cc1Br
A498 renal
  TGI: > 100 µM
786-0 renal
  TGI: > 100 µM
OVCAR-5 ovarian
  TGI: > 100 µM
UACC-62 melanoma
  TGI: > 100 µM
COLO 205 colon
  TGI: > 100 µM
NCI-H226 lung
  TGI: > 100 µM
SF-539 CNS
  TGI: > 100 µM
KM12 colon
  TGI: > 100 µM
SK-MEL-28 melanoma
  TGI: > 100 µM

## COc1ccc(-c2ccc(C3CC(c4ccc(Cl)cc4)=NN3)o2)c([N+](=O)[O-])c1 (configuration not stated)
A498 renal
  GI50: > 100 µM
  TGI: > 100 µM
786-0 renal
  GI50: > 100 µM
  TGI: > 100 µM
OVCAR-5 ovarian
  GI50: > 100 µM
  TGI: > 100 µM
UACC-62 melanoma
  GI50: 78.4 µM
  TGI: > 100 µM
COLO 205 colon
  GI50: > 100 µM
  TGI: > 100 µM
NCI-H226 lung
  GI50: > 100 µM
  TGI: > 100 µM
SF-539 CNS
  GI50: > 100 µM
  TGI: > 100 µM
OVCAR-8 ovarian
  GI50: > 100 µM
  TGI: > 100 µM
SK-MEL-28 melanoma
  GI50: > 100 µM
  TGI: > 100 µM

## Nc1ccc(/C=N/Nc2ccnc3c(N)cccc23)c2cccnc12
A498 renal
  GI50: 1.79 µM
  TGI: 3.3 µM
786-0 renal
  GI50: 1.59 µM
  TGI: 3.04 µM
OVCAR-5 ovarian
  GI50: 1.86 µM
  TGI: 3.44 µM
UACC-62 melanoma
  GI50: 1.73 µM
  TGI: 3.37 µM
COLO 205 colon
  GI50: 1.78 µM
  TGI: 3.46 µM
NCI-H226 lung
  GI50: 4.12 µM
  TGI: 20.8 µM
SF-539 CNS
  GI50: 1.74 µM
  TGI: 3.15 µM
KM12 colon
  GI50: 1.7 µM
  TGI: 3.49 µM
SK-MEL-28 melanoma
  GI50: 1.87 µM
  TGI: 3.51 µM

## NC(=S)N/N=C1/C(=O)N(c2ccc(Cl)cc2Cl)C(=O)C(=O)C1c1nc2ccccc2s1 (configuration not stated)
786-0 renal
  TGI: > 100 µM
OVCAR-5 ovarian
  TGI: > 100 µM
UACC-62 melanoma
  TGI: > 100 µM
COLO 205 colon
  TGI: > 100 µM
NCI-H226 lung
  TGI: > 100 µM
SF-539 CNS
  TGI: > 100 µM
OVCAR-8 ovarian
  TGI: > 100 µM
KM12 colon
  TGI: > 100 µM
SK-MEL-28 melanoma
  TGI: > 100 µM

## Cc1nc(NC(=O)CCCN2C(=O)c3cccc4cccc(c34)C2=O)sc1C(=O)Nc1cc(C(=O)NCCCN(C)C)n(C)c1
A498 renal
  GI50: > 100 µM
  TGI: > 100 µM
786-0 renal
  GI50: > 100 µM
  TGI: > 100 µM
OVCAR-5 ovarian
  GI50: > 100 µM
  TGI: > 100 µM
UACC-62 melanoma
  GI50: > 100 µM
  TGI: > 100 µM
COLO 205 colon
  GI50: > 100 µM
  TGI: > 100 µM
NCI-H226 lung
  GI50: > 100 µM
  TGI: > 100 µM
SF-539 CNS
  GI50: > 100 µM
  TGI: > 100 µM
KM12 colon
  GI50: > 100 µM
  TGI: > 100 µM
SK-MEL-28 melanoma
  GI50: > 100 µM
  TGI: > 100 µM

## COc1ccc(/C(C)=N/OC(=O)c2c(-c3ccccc3Cl)noc2C)cc1CN1CCOCC1
786-0 renal
  TGI: 59.2 µM
OVCAR-5 ovarian
  TGI: 45.9 µM
UACC-62 melanoma
  TGI: 30 µM
COLO 205 colon
  TGI: 31.3 µM
NCI-H226 lung
  TGI: > 100 µM
SF-539 CNS
  TGI: 56.7 µM
OVCAR-8 ovarian
  TGI: > 100 µM
KM12 colon
  TGI: 70.5 µM
SK-MEL-28 melanoma
  TGI: 54.4 µM

## O=C1C(=O)C(Br)(Br)C(Br)=C1Br
786-0 renal
  TGI: 32.1 µM
OVCAR-5 ovarian
  TGI: 26.8 µM
UACC-62 melanoma
  TGI: 33.6 µM
COLO 205 colon
  TGI: 32.9 µM
SF-539 CNS
  TGI: 33.4 µM
OVCAR-8 ovarian
  TGI: 36.6 µM
KM12 colon
  TGI: 28.6 µM
SK-MEL-28 melanoma
  TGI: 29.7 µM

## COc1ccc(C(c2c(O)c3ccccc3n(C)c2=O)c2c(O)c3ccccc3n(C)c2=O)cc1
786-0 renal
  TGI: > 100 µM
OVCAR-5 ovarian
  TGI: > 100 µM
UACC-62 melanoma
  TGI: 98 µM
COLO 205 colon
  TGI: > 100 µM
NCI-H226 lung
  TGI: 69.5 µM
SF-539 CNS
  TGI: 63.3 µM
OVCAR-8 ovarian
  TGI: > 100 µM
KM12 colon
  TGI: > 100 µM
SK-MEL-28 melanoma
  TGI: > 100 µM

## Cc1ccc(Cl)c(NC(=O)C(=O)C(C(=O)c2ccncc2)C2OC(=O)c3ccccc32)c1 (configuration not stated)
A498 renal
  TGI: > 100 µM
786-0 renal
  TGI: > 100 µM
UACC-62 melanoma
  TGI: > 100 µM
COLO 205 colon
  TGI: > 100 µM
NCI-H226 lung
  TGI: > 100 µM
SF-539 CNS
  TGI: > 100 µM
OVCAR-8 ovarian
  TGI: > 100 µM
SK-MEL-28 melanoma
  TGI: > 100 µM

## CCOC(=O)c1sc(Nc2ccc(Cl)cc2)nc1C
A498 renal
  GI50: 1.79 µM
  TGI: 5.44 µM
786-0 renal
  GI50: 1.55 µM
  TGI: 3.14 µM
OVCAR-5 ovarian
  GI50: 2.08 µM
  TGI: 6.63 µM
UACC-62 melanoma
  GI50: 1.17 µM
  TGI: 2.71 µM
COLO 205 colon
  GI50: 1.83 µM
  TGI: 3.59 µM
NCI-H226 lung
  GI50: 1.76 µM
  TGI: 4.46 µM
SF-539 CNS
  GI50: 1.66 µM
  TGI: 3.72 µM
OVCAR-8 ovarian
  GI50: 2.89 µM
  TGI: 7.73 µM
SK-MEL-28 melanoma
  GI50: 1.96 µM
  TGI: 4.23 µM

## COC(=O)C1=C(CO)C2C=CC1C2 (configuration not stated)
A498 renal
  TGI: > 100 µM
786-0 renal
  TGI: > 100 µM
OVCAR-5 ovarian
  TGI: > 100 µM
UACC-62 melanoma
  TGI: > 100 µM
COLO 205 colon
  TGI: > 100 µM
NCI-H226 lung
  TGI: > 100 µM
SF-539 CNS
  TGI: > 100 µM
OVCAR-8 ovarian
  TGI: > 100 µM
KM12 colon
  TGI: > 100 µM

## O=c1c2ccccc2c2nc3ccccc3nc2n1C1CCCCC1
786-0 renal
  TGI: > 100 µM
OVCAR-5 ovarian
  TGI: > 100 µM
UACC-62 melanoma
  TGI: > 100 µM
COLO 205 colon
  TGI: > 100 µM
NCI-H226 lung
  TGI: > 100 µM
SF-539 CNS
  TGI: > 100 µM
OVCAR-8 ovarian
  TGI: > 100 µM
KM12 colon
  TGI: > 100 µM
SK-MEL-28 melanoma
  TGI: > 100 µM

## COc1cc2nc(Nc3cccc(F)c3)nc(Nc3cc(C)[nH]n3)c2cc1OC
786-0 renal
  GI50: 1.75 µM
  TGI: 3.45 µM
OVCAR-5 ovarian
  GI50: 1.76 µM
  TGI: 3.2 µM
UACC-62 melanoma
  GI50: 1.85 µM
  TGI: 3.66 µM
COLO 205 colon
  GI50: 2.25 µM
  TGI: 4.99 µM
SF-539 CNS
  GI50: 1.78 µM
  TGI: 3.18 µM
OVCAR-8 ovarian
  GI50: 1.76 µM
  TGI: 5.61 µM
KM12 colon
  GI50: 1.64 µM
  TGI: 3.32 µM
SK-MEL-28 melanoma
  GI50: 1.77 µM
  TGI: 3.2 µM

## O=C1CCC2(CC1)SCCCS2
A498 renal
  TGI: > 100 µM
786-0 renal
  TGI: > 100 µM
OVCAR-5 ovarian
  TGI: > 100 µM
UACC-62 melanoma
  TGI: > 100 µM
COLO 205 colon
  TGI: > 100 µM
NCI-H226 lung
  TGI: > 100 µM
OVCAR-8 ovarian
  TGI: > 100 µM
KM12 colon
  TGI: > 100 µM
SK-MEL-28 melanoma
  TGI: > 100 µM

## CC(C)=CC(=O)Cc1nc2cc(C)c(C)cc2[nH]c1=O
A498 renal
  TGI: > 100 µM
786-0 renal
  TGI: > 100 µM
OVCAR-5 ovarian
  TGI: > 100 µM
UACC-62 melanoma
  TGI: > 100 µM
COLO 205 colon
  TGI: > 100 µM
NCI-H226 lung
  TGI: > 100 µM
SF-539 CNS
  TGI: > 100 µM
KM12 colon
  TGI: > 100 µM
SK-MEL-28 melanoma
  TGI: > 100 µM

## COC(=O)[C@]1(C)CCC[C@@]2(C)C1CCC1=CC3(C(C)C)CCC12OO3 (some centres not stated)
A498 renal
  TGI: > 100 µM
786-0 renal
  TGI: > 100 µM
OVCAR-5 ovarian
  TGI: > 100 µM
UACC-62 melanoma
  TGI: > 100 µM
COLO 205 colon
  TGI: > 100 µM
NCI-H226 lung
  TGI: > 100 µM
SF-539 CNS
  TGI: > 100 µM
OVCAR-8 ovarian
  TGI: > 100 µM
KM12 colon
  TGI: > 100 µM

## C=C(C)[C@@H]1CC[C@]2(C)[C@H](CC[C@@H]3[C@H]4[C@H]5OC[C@@]4(CCC5(C)C)CC[C@]32C)[C@@]1(C)CCCN
A498 renal
  GI50: 1.72 µM
  TGI: 3.12 µM
786-0 renal
  GI50: 1.67 µM
  TGI: 3.17 µM
OVCAR-5 ovarian
  GI50: 1.71 µM
  TGI: 3.1 µM
UACC-62 melanoma
  GI50: 1.71 µM
  TGI: 3.12 µM
COLO 205 colon
  GI50: 2.15 µM
  TGI: 4.65 µM
SF-539 CNS
  GI50: 1.78 µM
  TGI: 3.22 µM
KM12 colon
  GI50: 1.78 µM
  TGI: 3.33 µM
SK-MEL-28 melanoma
  GI50: 1.83 µM
  TGI: 3.36 µM
